Results reported in patent US20230203043A1, “NOVEL IMIDAZOPYRAZINE DERIVATIVES” (Hoffmann-La Roche Inc., priority 2020, published 2023).
Counter-ions that a name gives are not always drawn.

These compounds were tested on Acinetobacter baumannii ATCC17961 (assay: Antimicrobial susceptibility testing: 90% growth inhibitory concentration (IC90) determination in Iso-Sensitest broth, OD600 growth). Conditions: Acinetobacter baumannii, ATCC17961, 16 h, read-out: A. baumannii ATCC 17961 IC90 (uM), strain ATCC 17961, OD600 growth over 16 h.
Assay type: cell-based
Outline: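 Compounds were twofold serially diluted in DMSO across 10 points (e.g. 50 to 0.097 μM final) and inoculated at ~5×10^(5) CFU/ml. Plates incubated at 35±2° C, with OD600 read every 20 minutes over 16 h. IC90 was derived from growth inhibition during logarithmic growth.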

Row | SMILES | IC90 [µM]
1 | CCc1cc(Nc2nccn3c(-c4cn(CC#N)nc4C(F)(F)F)cnc23)ccc1C(=O)N[C@H](C)C(=O)NC1CC(N)C1 (stereo partly drawn) [Example 790, N-[(1R)-2-[(3-aminocyclobutyl)amino]-1-methyl-2-oxo-ethyl]-4-[[3-[1-(cyanomethyl)-3-(trifluoromethyl)pyrazol-4-yl]imidazo[1,2-a]pyrazin-8-yl]amino]-2-ethyl-benzamide formate] | 1.64
2 | CCc1cc(Nc2nccn3c(-c4cn(CC(F)F)nc4C(F)(F)F)cnc23)ccc1C(=O)NCCOCCN [Example 302, N-[2-(2-aminoethoxy)ethyl]-4-[[3-[1-(2,2-difluoroethyl)-3-(trifluoromethyl)pyrazol-4-yl]imidazo[1,2-a]pyrazin-8-yl]amino]-2-ethylbenzamide formate] | 0.17
3 | CCc1cc(Nc2nccn3c(-c4cn(CC#N)nc4C(F)(F)F)cnc23)ccc1C(=O)NCCOCCCN [Example 612, N-(2-(3-aminopropoxy)ethyl)-4-((3-(1-(cyanomethyl)-3-(trifluoromethyl)-1H-pyrazol-4-yl)imidazo[1,2-a]pyrazin-8-yl)amino)-2-ethylbenzamide formate] | 0.1
4 | CCc1cc(Nc2nccn3c(-c4cn(CC#N)nc4C(F)(F)F)cnc23)ccc1C(=O)NCC(=O)N1CC2(CNC2)C1 [Example 505, 4-[[3-[1-(cyanomethyl)-3-(trifluoromethyl)pyrazol-4-yl]imidazo[1,2-a]pyrazin-8-yl]amino]-N-[2-(2,6-diazaspiro[3.3]heptan-2-yl)-2-oxo-ethyl]-2-ethyl-benzamide formate] | 0.449
5 | CCc1cc(Nc2nccn3c(-c4cn(CCO)nc4C(F)(F)F)cnc23)ccc1C(=O)NCCOCCN [Example 305, N-[2-(2-aminoethoxy)ethyl]-2-ethyl-4-[[3-[1-(2-hydroxyethyl)-3-(trifluoromethyl)pyrazol-4-yl]imidazo[1,2-a]pyrazin-8-yl]amino]benzamide formate] | 0.406
6 | CCc1cc(Nc2nccn3c(-c4c[nH]nc4C(F)(F)F)cnc23)ccc1C(=O)NCCNC(=O)[C@@H]1C[C@@H](O)CN1 [Example 432, (2S,4R)-N-[2-[[2-ethyl-4-[[3-[3-(trifluoromethyl)-1H-pyrazol-4-yl]imidazo[1,2-a]pyrazin-8-yl]amino]benzoyl]amino]ethyl]-4-hydroxypyrrolidine-2-carboxamide formate] | 0.751
7 | N#CCn1cc(-c2cnc3c(Nc4ccc(C(=O)N5CCN(CC(=O)NCCCN)CC5)c(Cl)c4)nccn23)c(C(F)(F)F)n1 [Example 603, N-(3-aminopropyl)-2-(4-(2-chloro-4-((3-(1-(cyanomethyl)-3-(trifluoromethyl)-1H-pyrazol-4-yl)imidazo[1,2-a]pyrazin-8-yl)amino)benzoyl)piperazin-1-yl)acetamide formate] | 0.384
8 | CCc1cc(Nc2nccn3c(-c4cn(CC#N)nc4C(F)(F)F)cnc23)ccc1C(=O)NCC(=O)N1CC[C@H](N)C1 [Example 681, N-[2-[(3S)-3-aminopyrrolidin-1-yl]-2-oxo-ethyl]-4-[[3-[1-(cyanomethyl)-3-(trifluoromethyl)pyrazol-4-yl]imidazo[1,2-a]pyrazin-8-yl]amino]-2-ethyl-benzamide formate] | 0.327
9 | CCc1cc(Nc2nccn3c(-c4cn(CC(C)(CO)CCl)nc4C(F)(F)F)cnc23)ccc1C(=O)NCCOCCN (stereo not shown) [Example 279, N-[2-(2-aminoethoxy)ethyl]-4-[[3-[1-[2-(chloromethyl)-3-hydroxy-2-methylpropyl]-3-(trifluoromethyl)pyrazol-4-yl]imidazo[1,2-a]pyrazin-8-yl]amino]-2-ethylbenzamide formate] | 0.664
10 | CCc1cc(Nc2nccn3c(-c4cn(CC(F)F)nc4C(F)(F)F)cnc23)ccc1C(=O)NCCNC(=O)CCN [Example 536, N-(2-(3-aminopropanamido)ethyl)-4-((3-(1-(2,2-difluoroethyl)-3-(trifluoromethyl)-1H-pyrazol-4-yl)imidazo[1,2-a]pyrazin-8-yl)amino)-2-ethylbenzamide formate] | 0.145

Same assay, conditions: Acinetobacter baumannii, ATCC17961, 16 h, strain ATCC 17961, OD600 growth over 16 h, read-out: A. baumannii ATCC 17961 IC90

Row | SMILES | IC90 [µM]
11 | Cc1cc(Nc2nccn3c(-c4cn(CC#N)nc4C(F)(F)F)cnc23)cc(F)c1C(=O)N1CCNCC1 [Example 77, 2-[4-[8-[3-fluoro-5-methyl-4-(piperazine-1-carbonyl)anilino]imidazo[1,2-a]pyrazin-3-yl]-3-(trifluoromethyl)pyrazol-1-yl]acetonitrile] | 3.29
12 | CCc1cc(Nc2nccn3c(-c4cn(CC#N)nc4C(F)(F)F)cnc23)ccc1C(=O)NCCNC(=O)[C@@H]1CC[C@H](N)C1 [Example 494, N-(2-((1R,3S)-3-aminocyclopentane-1-carboxamido)ethyl)-4-((3-(1-(cyanomethyl)-3-(trifluoromethyl)-1H-pyrazol-4-yl)imidazo[1,2-a]pyrazin-8-yl)amino)-2-ethylbenzamide formate] | 0.157
13 | CCc1cc(Nc2nccn3c(-c4cn(CC#N)nc4C(F)F)cnc23)ccc1C(=O)N1CCN(C(=O)C2CCNCC2)CC1 [Example 792, 2-(3-(difluoromethyl)-4-(8-((3-ethyl-4-(4-(piperidine-4-carbonyl)piperazine-1-carbonyl)phenyl)amino)imidazo[1,2-a]pyrazin-3-yl)-1H-pyrazol-1-yl)acetonitrile] | 1.92
14 | N#CCn1cc(-c2cnc3c(Nc4ccc(C(=O)NCC(=O)N5CCC(N)CC5)c(Cl)c4)nccn23)c(C(F)(F)F)n1 [Example 502, N-[2-(4-amino-1-piperidyl)-2-oxo-ethyl]-2-chloro-4-[[3-[1-(cyanomethyl)-3-(trifluoromethyl)pyrazol-4-yl]imidazo[1,2-a]pyrazin-8-yl]amino]benzamide formate] | 0.233
15 | CNC(=O)c1ccc(Nc2nccn3c(-c4cn(C(F)F)nc4C(F)(F)F)cnc23)cc1Cl [Example 10, 2-chloro-4-[[3-[1-(difluoromethyl)-3-(trifluoromethyl)pyrazol-4-yl]imidazo[1,2-a]pyrazin-8-yl]amino]-N-methylbenzamide] | 0.458
16 | CCc1cc(Nc2nccn3c(-c4cn(CC#N)nc4C(F)(F)F)cnc23)ccc1C(=O)N[C@H](C)CNC(=O)[C@@H]1CCCN1 [Example 654, (S)-N-((R)-2-(4-((3-(1-(cyanomethyl)-3-(trifluoromethyl)-1H-pyrazol-4-yl)imidazo[1,2-a]pyrazin-8-yl)amino)-2-ethylbenzamido)propyl) pyrrolidine-2-carboxamide] | 0.263
17 | CCc1cc(Nc2nccn3c(-c4cn(CC(F)F)nc4C(F)F)cnc23)ccc1C(=O)N1CCN(C(=O)[C@@H]2C[C@@H](O)CN2)CC1 [Example 786, (4-(4-((3-(1-(2,2-difluoroethyl)-3-(difluoromethyl)-1H-pyrazol-4-yl)imidazo[1,2-a]pyrazin-8-yl)amino)-2-ethylbenzoyl)piperazin-1-yl)((2S,4R)-4-hydroxypyrrolidin-2-yl)methanone] | 1.43
18 | Cc1cc(Nc2nccn3c(-c4c[nH]nc4C(F)(F)F)cnc23)ccc1C(=O)N1CCN(C(=O)[C@@H]2CCNC2)CC1 [Example 332, [2-methyl-4-[[3-[3-(trifluoromethyl)-1H-pyrazol-4-yl]imidazo[1,2-a]pyrazin-8-yl]amino]phenyl]-[4-[(3R)-pyrrolidine-3-carbonyl]piperazin-1-yl]methanone] | 0.509
19 | N#CCn1cc(-c2cnc3c(Nc4ccc(C(=O)N5CC(O)C5)c(Cl)c4)nccn23)c(C(F)(F)F)n1 [Example 236, 2-[4-[8-[3-chloro-4-(3-hydroxyazetidine-1-carbonyl)anilino]imidazo[1,2-a]pyrazin-3-yl]-3-(trifluoromethyl)pyrazol-1-yl]acetonitrile] | 0.193
20 | N[C@@H]1CC[C@H](C(=O)N2CCN(C(=O)c3ccc(Nc4nccn5c(-c6cn(CC(F)F)nc6C(F)(F)F)cnc45)cc3F)CC2)C1 [Example 806, (4-((1S,3R)-3-aminocyclopentane-1-carbonyl)piperazin-1-yl)(4-((3-(1-(2,2-difluoroethyl)-3-(trifluoromethyl)-1H-pyrazol-4-yl)imidazo[1,2-α]pyrazin-8-yl)amino)-2-fluorophenyl)methanone hydrochloride] | 0.25
21 | O=C(CN1CCN(C(=O)c2ccc(Nc3nccn4c(-c5cn(CC(F)F)nc5C(F)(F)F)cnc34)cc2Cl)CC1)N[C@H]1CCNC1 [Example 600, (S)-2-(4-(2-chloro-4-((3-(1-(2,2-difluoroethyl)-3-(trifluoromethyl)-1H-pyrazol-4-yl)imidazo[1,2-a]pyrazin-8-yl)amino)benzoyl)piperazin-1-yl)-N-(pyrrolidin-3-yl) acetamide formate] | 0.517
22 | C#CCn1cc(-c2cnc3c(Nc4ccc(C(=O)N5CCN(C(=O)C6(O)CCNCC6)CC5)c(CC)c4)nccn23)c(C(F)F)n1 [Example 755, (4-(4-((3-(3-(difluoromethyl)-1-(prop-2-yn-1-yl)-1H-pyrazol-4-yl)imidazo[1,2-a]pyrazin-8-yl)amino)-2-ethylbenzoyl)piperazin-1-yl)(4-hydroxypiperidin-4-yl) methanone] | 0.678

Same assay, conditions: strain ATCC 17961, OD600 growth over 16 h, read-out: A. baumannii ATCC 17961 IC90

Row | SMILES | IC90 [µM]
23 | NC1CN(C(=O)c2ccc(Nc3nccn4c(-c5c[nH]nc5C(F)(F)F)cnc34)cc2Cl)C1 [Example 167] | 0.485
24 | NC1CC(NC(=O)N2CCN(C(=O)c3ccc(Nc4nccn5c(-c6c[nH]nc6C(F)(F)F)cnc45)cc3Cl)CC2)C1 (stereo not shown) [Example 289, N-(3-aminocyclobutyl)-4-[2-chloro-4-[[3-[3-(trifluoromethyl)-1H-pyrazol-4-yl]imidazo[1,2-a]pyrazin-8-yl]amino]benzoyl] piperazine-1-carboxamide formate] | 0.234
25 | C=CCn1cc(-c2cnc3c(Nc4ccc(C(=O)NCCOCC(C)N)c(CC)c4)nccn23)c(C(F)(F)F)n1 (stereo in doubt) [Example 146, N-[2-[(2S)-2-aminopropoxy]ethyl]-2-ethyl-4-[[3-[1-prop-2-enyl-3-(trifluoromethyl)pyrazol-4-yl]imidazo[1,2-a]pyrazin-8-yl]amino]benzamide] | 0.028
